{
  "source": "patent US11142524B2",
  "about": "“Substituted-3H-imidazo[4,5-c]pyridine and 1H-pyrrolo[2,3-c]pyridine series of novel Ectonucleotide Pyrophosphatase/Phosphodiesterase-1 (ENPP1) and stimulator for interferon genes (STING) modulators as cancer immunotherapeutics” (Stingray Therapeutics, Inc., priority 2018, dated 2021)",
  "key": {"ENPP1 protein [1]": {"biological_target": "T1, ENPP1 protein (Homo sapiens (Human), UniProt P22413)", "experiment": "ENPP1 Thermal Shift Assay (Example 1)", "type": "binding", "description": "Assay Buffer (1 mM CaCl2, 0.2 mM ZnCl2, 50 mM Tris, pH 9.0) 5000×SYPRO Orange (ThermoFisher cat #S6651) 384-well PCR Plates\nEach drug was prepared as a 10× solution in the assay buffer and SYPRO Orange was diluted to 10× concentration in water. Wells were set up in duplicate in a 384-well PCR plate as follows: 14 μL assay buffer, 2 μL ENPP1 Inhibitor or DMSO, 2 μL (0.5 μg) ENPP1 protein. Each well was mixed and incubated on ice for 5 minutes. Post incubation, 2 μL of SYPRO Orange was mixed into each well and followed by a gentle centrifugation. The protein melt reaction was run using ViiA7 software with temperatures beginning at 25° C. and increasing by 0.05° C./s to the maximum temperature of 99° C.\nIn a 384-well plate, 1.0 μg of ENPP1 protein incubated with 100 μM of the corresponding drug for 5 minutes. Each well exposed to increasing temperatures to determine an unfolding temperature of the protein."}, "Saos-2 Cells": {"tested_on": "Saos-2 Cells", "experiment": "ENPP1 Mineralization Assay", "type": "cell-based", "details": "FIG. 9, mineralization components for 3 days", "description": "Saos-2 Cells (ATCC CAT #HTB-85). Culture Medium. 24-well Tissue Culture Plate. Ascorbic Acid, 5 mg/mL (100×). β-Glycerophosphate, 1M (100×). Phosphate Buffered Saline. Alizarin Red, 40 mM pH 4.2. 70% Ethanol. Dye Extraction Reagent, 10% Methanol+10% Acetic Acid\nSaos-2 cells were plated at a density of 1.5×10^6 cells/well and allowed to grow to 100% confluency over the following 1-2 days. Once completely confluent, the media was replaced with fresh media supplemented with 1× ascorbic acid, 1× β-glycerophosphate, and varying concentrations of ENPP1 inhibitor (if applicable). The addition of the mineralization components was considered Day 1. On Day 3, the media was gently aspirated with no wash followed by the addition of fresh media, mineralization components, and ENPP1 inhibitor (if applicable). On day 5, the media was gently aspirated and the cells were washed twice with PBS. The cells were then fixed with ice cold 70% ethanol for 1 hour at 4° C. Cells were washed once with PBS and stained with Alizarin Red for 30 minutes at room temperature with gentle rotation. Stained cells were washed three times with water for 10 minutes at room temperature with gentle rotation. After imaging cells, dye extraction reagent was added to each well and incubated for 30 minutes at room temperature. Alizarin red was quantified by measuring absorbance at a wavelength of 405 nm using the Envision.\nFIG. 9 depicts a picture of results of a similar SAOS-2 mineralization assay. SAOS-2 cell were cultured in the presence and absence of ENPP1 inhibitor (compound 78, 107-02 or 108) and exposed to mineralization components for 3 days."}, "[2]": {"tested_on": "IRF-3 reporter in THP1 WT and STING knockout cells", "experiment": "THP1 IRF-3 Reporter Assay", "type": "cell-based", "details": "10 μM, primed with 2′3′cGAMP, 24 hours (FIG. 10) or 72 hours (FIG. 11)", "description": "FIGS. 10 and 11 depict results of a THP1 IRF-3 Reporter Assay. THP1 WT and STING knockout cells were primed with 2′3′cGAMP and treated with 10 μM ENPP1 inhibitors for 24 hours (FIG. 10) or 72 hours (FIG. 11). Media collected to determine induction of IRF-3 reporter using luminescence reagent QuantiLuc."}, "ENPP1 protein [3]": {"biological_target": "T1, ENPP1 protein", "experiment": "ENPP1 enzymatic assay with TMP substrate (FIG. 8)", "type": "biochemical", "details": "5.0 ng ENPP1, 150 μM TMP substrate", "description": "FIG. 8 depicts results of a similar experiment. 5.0 ng of ENPP1 protein exposed to increasing doses of inhibitor (compound 78 or compound 107-02) for 10 minutes in solution, followed by the addition of 150 μM of TMP substrate. The assay was then incubated for 20 minutes and then read at 405 nm on the envision plate reader."}, "[4]": {"biological_target": "T2, Recombinant Human ENPP-1 Protein (purified in-house) (Homo sapiens (Human), UniProt P22413)", "T2 sequence (P22413 whole entry, looked up)": "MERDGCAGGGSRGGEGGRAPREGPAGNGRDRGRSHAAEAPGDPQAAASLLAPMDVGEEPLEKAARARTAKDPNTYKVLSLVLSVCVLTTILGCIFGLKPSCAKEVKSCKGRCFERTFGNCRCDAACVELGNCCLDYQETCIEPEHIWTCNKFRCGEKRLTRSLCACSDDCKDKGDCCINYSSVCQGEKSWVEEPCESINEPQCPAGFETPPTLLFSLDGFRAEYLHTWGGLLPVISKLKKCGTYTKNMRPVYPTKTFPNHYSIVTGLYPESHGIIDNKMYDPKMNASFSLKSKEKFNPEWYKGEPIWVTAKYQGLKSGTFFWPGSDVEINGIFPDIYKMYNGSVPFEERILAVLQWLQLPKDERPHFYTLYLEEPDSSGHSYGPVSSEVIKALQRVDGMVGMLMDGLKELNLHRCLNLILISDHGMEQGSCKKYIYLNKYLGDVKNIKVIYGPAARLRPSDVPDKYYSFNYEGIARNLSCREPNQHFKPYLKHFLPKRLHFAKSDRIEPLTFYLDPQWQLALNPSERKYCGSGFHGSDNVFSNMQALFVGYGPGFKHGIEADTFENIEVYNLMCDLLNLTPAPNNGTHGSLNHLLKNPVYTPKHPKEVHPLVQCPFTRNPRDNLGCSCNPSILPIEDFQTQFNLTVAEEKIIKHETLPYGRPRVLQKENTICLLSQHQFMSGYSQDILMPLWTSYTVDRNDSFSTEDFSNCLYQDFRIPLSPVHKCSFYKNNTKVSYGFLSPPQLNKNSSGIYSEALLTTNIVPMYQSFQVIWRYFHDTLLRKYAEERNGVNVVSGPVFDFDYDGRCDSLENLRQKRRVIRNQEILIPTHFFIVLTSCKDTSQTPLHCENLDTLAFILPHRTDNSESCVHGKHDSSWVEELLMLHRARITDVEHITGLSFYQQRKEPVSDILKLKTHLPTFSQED", "experiment": "ENPP1 Assay (TMP), Example 2", "type": "biochemical", "details": "Table 5, TMP substrate; read-out: ENPP1 (IC50 μM) TMP", "description": "Enzyme: 1 ng/μL Recombinant Human ENPP-1 Protein (purified in-house)—Assay Conc.: 5 ng/well of DMSO in 96-well clear assay plates.\n(§1) A ten point serial dilution of drugs was prepared in 10× in assay buffer with the final assay concentrations starting at 10 μM, 3 μM, 1 μM, 0.3 μM . . . 0 μM. A dilution of DMSO was included as a control. The assay plate was set up as follows with each well in duplicate: 75 μL assay buffer+10 μL ENPP1 inhibitor or DMSO Dilutions+10 μL Substrate+5 μL Enzyme (5 ng). Both the enzyme and substrate were added to opposite sides of the well to ensure that there was no interaction until all wells had both components. The plate was then centrifuged gently for 10 seconds, followed by an incubation at 37° C. for 45 minutes. The reaction was quantified by measuring absorbance at 405 nm using the Envision Plate Reader."}, "[5]": {"biological_target": "T2, Recombinant Human ENPP-1 Protein (purified in-house)", "experiment": "ENPP1 Assay (ATP), Example 2", "type": "biochemical", "details": "Table 5, ATP substrate; read-out: ENPP1 (IC50 μM) ATP", "description": "Assay Buffer: 1 mM CaCl2, 0.2 mM ZnCl2, 50 mM Tris, pH 9.0. Substrate: 100 μM Adenosine 5′-triphosphate disodium salt hydrate (Promega: V703A)—Assay Conc.: 10 μM. Enzyme: 1 ng/μL Recombinant Human ENPP-1 Protein (purified in-house)—Assay Conc.: 5 ng/well of DMSO in 96-well white assay plates. Cell Titer Glo (Promega, cat #G7572).\nas §1, with “by” for “by an”, “RT” for “37° C.”, “20 minutes. To detect levels of ATP, Cell Titer Glo was added 1:1 to each well and incubated for 10” for “45”, “luminescence” for “absorbance at 405 nm”"}, "[6]": {"experiment": "Physicochemical profile of 107-02 (PSA, Log P, Log S, solubility)"}, "Caco-2": {"tested_on": "Caco-2", "experiment": "Caco-2 permeability", "type": "in vitro ADME"}, "PgP": {"biological_target": "PgP (Homo sapiens (Human), UniProt P08183)", "sequence (P08183 whole entry)": "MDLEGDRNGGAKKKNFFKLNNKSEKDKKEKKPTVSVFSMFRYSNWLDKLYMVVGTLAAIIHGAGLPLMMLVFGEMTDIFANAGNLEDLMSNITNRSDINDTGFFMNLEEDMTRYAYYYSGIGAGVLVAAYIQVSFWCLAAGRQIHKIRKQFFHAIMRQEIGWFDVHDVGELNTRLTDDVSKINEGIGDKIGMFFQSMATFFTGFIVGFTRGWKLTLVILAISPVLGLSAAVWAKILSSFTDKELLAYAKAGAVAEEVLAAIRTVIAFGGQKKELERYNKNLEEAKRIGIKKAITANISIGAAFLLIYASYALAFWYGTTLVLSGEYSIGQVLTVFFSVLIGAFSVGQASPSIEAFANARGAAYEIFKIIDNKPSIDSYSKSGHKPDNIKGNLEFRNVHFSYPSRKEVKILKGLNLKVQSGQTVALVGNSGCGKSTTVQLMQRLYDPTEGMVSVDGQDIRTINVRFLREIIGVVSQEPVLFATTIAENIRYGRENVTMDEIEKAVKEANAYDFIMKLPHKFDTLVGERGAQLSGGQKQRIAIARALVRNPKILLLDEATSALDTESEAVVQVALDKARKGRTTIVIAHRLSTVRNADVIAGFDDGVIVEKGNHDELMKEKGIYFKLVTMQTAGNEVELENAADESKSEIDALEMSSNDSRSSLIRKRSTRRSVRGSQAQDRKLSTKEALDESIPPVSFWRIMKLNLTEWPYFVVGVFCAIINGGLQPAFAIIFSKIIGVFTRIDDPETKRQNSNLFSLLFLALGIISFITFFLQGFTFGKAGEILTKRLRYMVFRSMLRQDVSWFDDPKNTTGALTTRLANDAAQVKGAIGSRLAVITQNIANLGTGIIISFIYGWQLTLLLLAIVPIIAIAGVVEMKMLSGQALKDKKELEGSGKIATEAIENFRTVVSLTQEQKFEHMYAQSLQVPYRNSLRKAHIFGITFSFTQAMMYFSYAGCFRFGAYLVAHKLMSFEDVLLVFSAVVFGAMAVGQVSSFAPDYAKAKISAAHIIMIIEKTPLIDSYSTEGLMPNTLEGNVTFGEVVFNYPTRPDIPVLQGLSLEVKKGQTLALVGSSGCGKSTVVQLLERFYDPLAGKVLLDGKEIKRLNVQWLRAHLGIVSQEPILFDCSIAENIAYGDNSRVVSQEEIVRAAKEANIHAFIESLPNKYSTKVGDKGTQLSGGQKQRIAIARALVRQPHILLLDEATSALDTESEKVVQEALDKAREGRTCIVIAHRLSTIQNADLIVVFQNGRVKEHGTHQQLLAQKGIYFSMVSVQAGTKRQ", "experiment": "PgP Inhibition", "type": "in vitro ADME"}, "ENPP": {"tested_on": "ENPP", "experiment": "Selectivity"}, "Mouse PK Profile": {"experiment": "Mouse PK Profile", "type": "in vivo"}, "KPC mouse model of PDAC": {"tested_on": "KPC mouse model of PDAC", "experiment": "Tumor growth in KPC mouse model of PDAC", "type": "in vivo", "details": "once daily via IP at 20 mg/kg, FIG. 15B", "from_the_text": "FIG. 15A a pharmacokinetic (PK) plasma concentration chart for compound 107-02. FIG. 15B is a tumor growth inhibition curve for compound 107-02 following in vivo administration. […] FIGS. 15C and 15D are flowcytometric charts of excised tumors following administration of compound 107-02. At the end of the study, tumors were excised and analyzed for T-cells and tumor-associated macrophages using flow cytometry. *p<0.05."}},
  "data": [
    {"smiles": "COc1ccc(NC(=O)CSc2nc3c(C)c(C#N)ncc3[nH]2)cc1OP(=O)(O)O", "note": "[Compound 107-02, 5-(2-((6-Cyano-7-methyl-3H-imidazo[4,5-c]pyridin-2-yl)thio)acetamido)-2-methoxyphenyl dihydrogen phosphate]", "values": [
      {"measurement": "Tm (° C.)", "setting": "ENPP1 protein [1]; Table 2, FIG. 7, 100 μM drug, 1.0 μg ENPP1, NT 60.05", "result": 63.89, "unit": "°C"},
      {"measurement": "ΔTm at 100 µM", "setting": "ENPP1 protein [1]; read-out: ΔTm (° C.)", "result": 3.84, "unit": "°C"},
      {"measurement": "total mineralization", "setting": "Saos-2 Cells", "result": "significant decrease"},
      {"measurement": "IRF-3 response", "setting": "[2]", "result": "significant increase"},
      {"measurement": "enzymatic activity", "setting": "ENPP1 protein [3]", "result": "significant decrease"},
      {"measurement": "IC50", "setting": "[4]", "result": 0.742, "unit": "µM"},
      {"measurement": "IC50", "setting": "[5]", "result": 0.211, "unit": "µM"},
      {"measurement": "solubility", "setting": "[6]", "result": 640, "unit": "µg/mL"},
      {"measurement": "logP", "setting": "[6]; pH 7.4", "result": 0.009},
      {"measurement": "Caco2", "setting": "Caco-2; first entry (Caco2)", "result": "−5.28"},
      {"measurement": "Caco-2", "setting": "Caco-2; second entry (Caco-2)", "result": "−4.867"},
      {"measurement": "PgP Inhibition", "setting": "PgP", "result": "Negative"},
      {"measurement": "Selectivity", "setting": "ENPP", "result": "Highly selective ENPPi"},
      {"measurement": "Mouse PK Profile CO", "setting": "Mouse PK Profile", "result": 2840.69, "unit": "ng/mL"},
      {"measurement": "AUC(0-t)", "setting": "Mouse PK Profile; plasma", "result": 1640, "unit": "ng·h/mL"},
      {"measurement": "half-life", "setting": "Mouse PK Profile; plasma", "result": 1.83, "unit": "h"},
      {"measurement": "AUC(0-inf)", "setting": "Mouse PK Profile; plasma, read-out: AUCINF obs", "result": 1650, "unit": "ng·h/mL"},
      {"measurement": "clearance", "setting": "Mouse PK Profile; plasma, read-out: CL obs", "result": 22.1, "unit": "mL/min/kg"},
      {"measurement": "tumor growth of KPC mouse model of PDAC", "setting": "KPC mouse model of PDAC", "result": "inhibits tumor growth"}
    ]}
  ]
}
